According to patent US20200237742A1, “Serdexmethylphenidate Conjugates, Compositions And Methods Of Use Thereof” (priority 2018, published 2020):

Test system: healthy, nondependent, recreational stimulant users with intranasal insufflation experience
Assay: Intranasal study, treatment-emergent adverse events (Table 54)
Procedure: The study consisted of a Screening Period, an in-clinic Drug Discrimination Phase, a Treatment Phase, and a Follow-Up Visit.
All subjects were required to fast for at least 8 hours prior to each dose of study drug until approximately 4 hours after each dose. Abuse potential measures and pharmacokinetic samples were collected at different times after the administration of study drug. Subjects who successfully completed the Drug Discrimination Phase and who qualified for the Treatment Phase remained as inpatients to enter the Treatment Phase.

[1] = intranasal, d-MPH HCl 40 mg, SDX Cl 80 mg, N = 46 each

Compound: COC(=O)[C@H](c1ccccc1)[C@H]1CCCCN1C(=O)OC[n+]1cccc(C(=O)N[C@@H](CO)C(=O)O)c1.[Cl-] [serdexmethylphenidate chloride]
- respiratory, thoracic, and eye disorders (nasal discomfort, nasal congestion, rhinorrhoea, epistaxis, increased lacrimation) (intranasal SDX Cl compared to intranasal d-MPH HCl): occurred more often
- Abdominal distension, number of occurrences [1]: 1 E
- Abdominal distension, subjects with event [1]: 1 (2.2%) n (%)
- Abdominal pain, number of occurrences [1]: 2 E
- Abdominal pain, subjects with event [1]: 2 (4.3%) n (%)
- Agitation, number of occurrences [1]: 1 E
- Agitation, subjects with event [1]: 1 (2.2%) n (%)
- Anxiety, number of occurrences [1]: 1 E
- Anxiety, subjects with event [1]: 1 (2.2%) n (%)
- Any TEAE, number of occurrences [1]: 102 E
- Any TEAE, subjects with event [1]: 36 (78.3%) n (%)
- Arthralgia, number of occurrences [1]: 1 E
- Arthralgia, subjects with event [1]: 1 (2.2%) n (%)
- Asthenia, number of occurrences [1]: 1 E
- Asthenia, subjects with event [1]: 1 (2.2%) n (%)
- Back pain, subjects with event [1]: 0 n (%)
- Blood pressure diastolic increased, subjects with event [1]: 0 n (%)
- Bruxism, subjects with event [1]: 0 n (%)
- Cardiac disorders, number of occurrences [1]: 2 E
- Cardiac disorders, subjects with event [1]: 2 (4.3%) n (%)
- Catheter site haematoma, number of occurrences [1]: 1 E
- Catheter site haematoma, subjects with event [1]: 1 (2.2%) n (%)
- Catheter site swelling, number of occurrences [1]: 1 E
- Catheter site swelling, subjects with event [1]: 1 (2.2%) n (%)
- Change in sustained attention, subjects with event [1]: 0 n (%)
- Chest discomfort, subjects with event [1]: 0 n (%)
- Chest pain, number of occurrences [1]: 1 E
- Chest pain, subjects with event [1]: 1 (2.2%) n (%)
- Claustrophobia, number of occurrences [1]: 1 E
- Claustrophobia, subjects with event [1]: 1 (2.2%) n (%)
- Cough, number of occurrences [1]: 3 E
- Cough, subjects with event [1]: 3 (6.5%) n (%)
- Decreased appetite, subjects with event [1]: 0 n (%)
- Defaecation urgency, subjects with event [1]: 0 n (%)
- Diarrhoea, number of occurrences [1]: 1 E
- Diarrhoea, subjects with event [1]: 1 (2.2%) n (%)
- Disturbance in attention, number of occurrences [1]: 1 E
- Disturbance in attention, subjects with event [1]: 1 (2.2%) n (%)
- Dizziness, number of occurrences [1]: 1 E
- Dizziness, subjects with event [1]: 1 (2.2%) n (%)
- Dry mouth, subjects with event [1]: 0 n (%)
- Dry throat, subjects with event [1]: 0 n (%)
- Dysgeusia, number of occurrences [1]: 2 E
- Dysgeusia, subjects with event [1]: 2 (4.3%) n (%)
- Dysmenorrhoea (menstrual cramps), subjects with event [1]: 0 n (%)
- Dyspepsia, subjects with event [1]: 0 n (%)
- Ecchymosis (skin discoloration), number of occurrences [1]: 1 E
- Ecchymosis (skin discoloration), subjects with event [1]: 1 (2.2%) n (%)
- Energy increased, subjects with event [1]: 0 n (%)
- Epistaxis (nosebleed), number of occurrences [1]: 3 E
- Epistaxis (nosebleed), subjects with event [1]: 3 (6.5%) n (%)
- Euphoric mood, number of occurrences [1]: 9 E
- Euphoric mood, subjects with event [1]: 9 (19.6%) n (%)
- Eye disorders, number of occurrences [1]: 9 E
- Eye disorders, subjects with event [1]: 8 (17.4%) n (%)
- Eye irritation, subjects with event [1]: 0 n (%)
- Eye pain, number of occurrences [1]: 1 E
- Eye pain, subjects with event [1]: 1 (2.2%) n (%)
- Fatigue, number of occurrences [1]: 1 E
- Fatigue, subjects with event [1]: 1 (2.2%) n (%)
- Feeling hot, subjects with event [1]: 0 n (%)
- Feeling of relaxation, number of occurrences [1]: 2 E
- Feeling of relaxation, subjects with event [1]: 2 (4.3%) n (%)
- Flushing, subjects with event [1]: 0 n (%)
- Gastrointestinal disorders, number of occurrences [1]: 6 E
- Gastrointestinal disorders, subjects with event [1]: 4 (8.7%) n (%)
- General disorders and administration site conditions, number of occurrences [1]: 7 E
- General disorders and administration site conditions, subjects with event [1]: 6 (13.0%) n (%)
- Haematoma, subjects with event [1]: 0 n (%)
- Head discomfort, number of occurrences [1]: 1 E
- Head discomfort, subjects with event [1]: 1 (2.2%) n (%)
- Headache, number of occurrences [1]: 6 E
- Headache, subjects with event [1]: 5 (10.9%) n (%)
- Hyperhidrosis, number of occurrences [1]: 2 E
- Hyperhidrosis, subjects with event [1]: 2 (4.3%) n (%)
- Hypervigilance, number of occurrences [1]: 6 E
- Hypervigilance, subjects with event [1]: 6 (13.0%) n (%)
- Hypopnoea (shallow breathing), subjects with event [1]: 0 n (%)
- Infections and infestations, subjects with event [1]: 0 n (%)
- Investigations, subjects with event [1]: 0 n (%)
- Irritability, number of occurrences [1]: 1 E
- Irritability, subjects with event [1]: 1 (2.2%) n (%)
- Lacrimation increased, number of occurrences [1]: 8 E
- Lacrimation increased, subjects with event [1]: 8 (17.4%) n (%)
- Metabolism and nutrition disorders, subjects with event [1]: 0 n (%)
- Muscle tightness, subjects with event [1]: 0 n (%)
- Muscle twitching, subjects with event [1]: 0 n (%)
- Musculoskeletal and connective tissue disorders, number of occurrences [1]: 1 E
- Musculoskeletal and connective tissue disorders, subjects with event [1]: 1 (2.2%) n (%)
- Nasal congestion, number of occurrences [1]: 10 E
- Nasal congestion, subjects with event [1]: 10 (21.7%) n (%)
- Nasal discomfort, number of occurrences [1]: 14 E
- Nasal discomfort, subjects with event [1]: 13 (28.3%) n (%)
- Nasal dryness, number of occurrences [1]: 1 E
- Nasal dryness, subjects with event [1]: 1 (2.2%) n (%)
- Nausea, number of occurrences [1]: 2 E
- Nausea, subjects with event [1]: 2 (4.3%) n (%)
- Neck pain, subjects with event [1]: 0 n (%)
- Nervous system disorders, number of occurrences [1]: 12 E
- Nervous system disorders, subjects with event [1]: 11 (23.9%) n (%)
- Obsessive-compulsive disorder, subjects with event [1]: 0 n (%)
- Palpitations, number of occurrences [1]: 2 E
- Palpitations, subjects with event [1]: 2 (4.3%) n (%)
- Peripheral swelling, subjects with event [1]: 0 n (%)
- Pharyngeal hypoaesthesia (numbness of throat), subjects with event [1]: 0 n (%)
- Pharyngitis, subjects with event [1]: 0 n (%)
- Phlebitis superficial, subjects with event [1]: 0 n (%)
- Phonophobia (fear of loud noises), subjects with event [1]: 0 n (%)
- Photophobia, subjects with event [1]: 0 n (%)
- Psychiatric disorders, number of occurrences [1]: 19 E
- Psychiatric disorders, subjects with event [1]: 13 (28.3%) n (%)
- Pyrexia, subjects with event [1]: 0 n (%)
- Reproductive system and breast disorders, subjects with event [1]: 0 n (%)
- Respiratory, thoracic and mediastinal disorders, number of occurrences [1]: 42 E
- Respiratory, thoracic and mediastinal disorders, subjects with event [1]: 25 (54.3%) n (%)
- Restlessness, subjects with event [1]: 0 n (%)
- Rhinorrhoea (runny nose), number of occurrences [1]: 4 E
- Rhinorrhoea (runny nose), subjects with event [1]: 4 (8.7%) n (%)
- Sinus tachycardia, subjects with event [1]: 0 n (%)
- Skin and subcutaneous tissue disorders, number of occurrences [1]: 4 E
- Skin and subcutaneous tissue disorders, subjects with event [1]: 4 (8.7%) n (%)
- Skin erosion, number of occurrences [1]: 1 E
- Skin erosion, subjects with event [1]: 1 (2.2%) n (%)
- Sneezing, number of occurrences [1]: 1 E
- Sneezing, subjects with event [1]: 1 (2.2%) n (%)
- Somnolence, number of occurrences [1]: 1 E
- Somnolence, subjects with event [1]: 1 (2.2%) n (%)
- Tachycardia, subjects with event [1]: 0 n (%)
- Testis discomfort, subjects with event [1]: 0 n (%)
- Throat irritation, number of occurrences [1]: 4 E
- Throat irritation, subjects with event [1]: 3 (6.5%) n (%)
- Upper-airway cough syndrome, number of occurrences [1]: 2 E
- Upper-airway cough syndrome, subjects with event [1]: 2 (4.3%) n (%)
- Vascular disorders, subjects with event [1]: 0 n (%)
- Ventricular extrasystoles, subjects with event [1]: 0 n (%)
- Vessel puncture site bruise, subjects with event [1]: 0 n (%)
- Vessel puncture site pain, subjects with event [1]: 0 n (%)
- Visual impairment, subjects with event [1]: 0 n (%)
- Vomiting, subjects with event [1]: 0 n (%)
